Measured values from paper PMC10535864, “Novel Aminopyrimidine-2,4-diones, 2-Thiopyrimidine-4-ones, and 6-Arylpteridines as Dual-Target Inhibitors of BRD4/PLK1: Design, Synthesis, Cytotoxicity, and Computational Studies” (Pharmaceuticals, 2023).
Where two headings read alike, the source gives them in different places. Each block holds one molecule with its values, some of them ahead of it.

Legend:
[1] = test system: HT-29 colorectal adenocarcinoma cells; assay: MTT cytotoxicity assay, HT-29; format: cell-based; conditions: for viability at 0.312 µM / viability at 0.625 µM / viability at 1.25 µM / viability at 2.5 µM / viability at 5 µM / viability at 10 µM / IC50: Homo sapiens, HT-29
How it was run: (§1)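 Cells seeded at 1 X 10^5 cells/mL and grown 24 h at 37°C to a monolayer, then exposed to two-fold compound dilutions in RPMI with 2% serum, six doses. MTT added for 4 h at 37°C, formazan dissolved in DMSO, OD read at 560 nm minus 620 nm background. IC50 from dose-response.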

[2] = test system: U-937 renal cancer cells; assay: MTT cytotoxicity assay, U-937; format: cell-based; conditions: for IC50: Homo sapiens, U-937;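 as to all read-outs here: Six-dose MTT colorimetric assay on cell monolayers, formazan absorbance read at 560 nm with 620 nm background removed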
Description: (§2) All newly synthetic compounds were tested for cytotoxicity using a six-dose MTT colorimetric assay on three cancer cell lines; namely, breast cancer cells (MDA-MB-231), colorectal adenocarcinoma cells (HT-29) and renal cancer cells (U-937).
(§3) Using a six-dose MTT colorimetric assay [44, 66], all new synthetic compounds were tested for cytotoxicity against three cancer cell lines: MDA-MB-231 breast cancer cells, HT-29 colorectal adenocarcinoma cells, and U-937 renal cancer cells. […] These cell lines were supplied by ATCC (American Type Culture Collection) via the Holding company for biological products and vaccines (VACSERA, Cairo, Egypt). The reference control used was Methotrexate.
(§4) Using a six-dose MTT colorimetric assay [44, 66], allnew synthetic compounds were tested for cytotoxicity against three cancer cell lines: MDA-MB-231 breast cancer cells,HT-29 colorectal adenocarcinoma cells, and U-937 renal
(§5) The cell lines were supplied by ATCC (American Type Culture Collection). The reference control used was Methotrexate. The cytotoxic activities of the examined compounds were quantified by inoculating a 96-well tissue culture plate with 1 X 10^5 cells / mL (100 uL/well) and incubating it at 37°C for 24 hours to develop a complete monolayer sheet. After forming a confluent sheet of cells, the growth medium was decanted from 96-well microtiter plates, and the cell monolayer was washed twice with wash media. Two-fold dilutions of tested samples were made in RPMI medium with 2% serum (maintenance medium), and 0.1 mL of each dilution was tested in different wells, with three wells serving as controls and receiving only maintenance medium. Following that, the plate was incubated at 37°C and examined. Cells were investigated for any physical signs of toxicity, such as partial or complete monolayer loss, rounding, shrinkage, or cell granulation. MTT solution was prepared (5mg/ml in PBS) (BIO BASIC CANADA INC), and 20 uL MTT solution was added to each well. After 5 minutes on a shaking table at150 rpm to thoroughly mix the MTT into the media, it was incubated (37C, 5% CO2) for 4 hours to allow the MTT to be metabolized. Formazan (MTT metabolic product) was resuspended in 200 uL DMSO and shaken at 150 rpm for 5 minutes to thoroughly mix the formazan into the solvent. The optical density was measured at 560 nm, and the background was subtracted at 620 nm. Finally, the IC50 of the test compound in comparison to the reference was calculated using the GraphPad Prism software.

[3] = MTT cytotoxicity assay, U-937; format: cell-based; conditions: Homo sapiens, U-937, U937, MTT;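 also: Six-dose MTT colorimetric assay on cell monolayers, formazan absorbance read at 560 nm with 620 nm background removed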
Description: as §2, §3, §4, §5

[4] = MTT cytotoxicity assay, normal Vero cells; format: cell-based; conditions: African green monkey, normal Vero cells, MTT; for IC50: mean of three independent experiments ± SD, read-out: In Vitro Cytotoxicity against Normal Cells IC50 Value, Vero Cells; for viability at 0.312 µM / viability at 0.625 µM / viability at 1.25 µM / viability at 2.5 µM / viability at 5 µM / viability at 10 µM: Vero
Description: as §3
1.1.In-vitro cytotoxicity screening
as §4, §5

[5] = test system: normal Vero cells; assay: MTT cytotoxicity assay, normal Vero cells; format: cell-based; conditions: Vero; for Toxicity %: MTT
Description: as §3
1.1.In-vitro cytotoxicity screening
as §4, §5

[6] = target: human recombinant PLK1 (Homo sapiens, UniProt P53350); assay: PLK1 inhibitory activity assay (ADP-Glo Kinase Assay); format: biochemical; conditions: for %inh: PLK1 Lab Report; for IC50: mean of three independent experiments, read-out: PLK1 IC50 ± SD
Description: The BRD4 and PLK1 inhibitory assays were carried out in vitro in accordance with the manufacturer’s instructions; BRD4 was assessed using AlphaLISA Bromodomain Assay Protocol, and PLK1 kinase was tested using the ADP-Glo™ Kinase Assay Protocol, as detailed in the Supplementary file. […]
1.2.2. PLK1 inhibitory activity assay
The kinase reaction was performed with active human recombinant PLK1 and combined with the substrate dephosphorylated casein (positive control) using 1 X reaction buffer (40 mM Tris-HCl pH 7.4, 20 mM MgCl2, 0.1 mg/mL BSA, 1 mM DTT) and 20 μM ATP. The reaction was incubated at30°C for 45 minutes. The amount of ATP transferred was calculated using […] reagent from Promega according to the manufacturer’s instruction.
A plate-reading luminometer isused to measure the luminescence. […]

[7] = target: T1, BRD4 (BD2) (Homo sapiens, UniProt O60885); assay: BRD4 inhibitory activity assay (AlphaLISA Bromodomain Assay); format: binding; conditions: for %inh: BRD4 Lab Report; for IC50: mean of three independent experiments, read-out: BRD4 IC50 ± SD;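 as to all read-outs here: in vitro inhibition of recombinant BRD4 BD2 bromodomain binding to a BET bromodomain ligand, read by AlphaLISA proximity signal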
T1 construct: BRD4 (BD2) should be thawed on ice; purchased
Description: The BRD4 and PLK1 inhibitory assays were carried out in vitro in accordance with the manufacturer’s instructions; BRD4 was assessed using AlphaLISA Bromodomain Assay Protocol [67], and PLK1 kinase was tested using the ADP-Glo™ Kinase Assay Protocol [68], as detailed in the Supplementary file.
The BRD4 and PLK1 inhibitory assays were carried out in vitro in accordance with the manufacturer's instructions; BRD4 was assessed using AlphaLISA Bromodomain Assay Protocol [67], and PLK1 kinase was tested using the ADP-Glo™ Kinase Assay Protocol [68],
The master mixture was prepared as follows: N wells × (2.5 µL 3x BRD Homogeneous Assay Buffer 1 + 1 µL BET Bromodomain Ligand + 1.5 µL H2O). BRD4 (BD2) should be thawed on ice. Simply, the protein-containing tube was spined to recover the full content of the tube after the firstthaw. Both proteins should be aliquoted into single-use aliquots. Immediately, any remaining undiluted protein should be stored in aliquots at -80°C. BRD4 (BD2) was diluted in 1x BRD Homogeneous Assay Buffer 1 at 4 ng/µL. The diluted proteins were kept on ice until they were used. 5 µl of the master mixture is added to each well designated for the “Positive Control”, “Test Inhibitor”, and “Blank”. For the “Substrate Control”, 2.5 µL 3x BRD Homogeneous Assay Buffer 1 + 1 µL Non-acetylated Ligand 1 + 1.5 µL H2O is added. Each “Test Inhibitor” well received 2.5 µL of inhibitor solution, while the “Positive
Control”, “Substrate Control”, and “Blank” wells received 2.5 µL of the same solution without inhibitor (inhibitor buffer). Then, the “Blank” well is filled with 2.5 µL of 1x BRD Homogeneous Assay Buffer 1. After that, GSH
10 µL per well is added, the plate isshaken, and itis incubated at room temperature for 30 minutes. Streptavidin-
10 µL is added per well and incubated at room temperature for further 15 – 30 minutes [67]. The Alpha counts were read using the EnVision® multimode plate reader with the standard Alpha detection settings.

[8] = test system: MDA-MB-231 breast cancer cells; assay: MTT cytotoxicity assay, MDA-MB-231; format: cell-based; conditions: for IC50 / viability at 0.312 µM / viability at 0.625 µM / viability at 1.25 µM / viability at 2.5 µM / viability at 5 µM / viability at 10 µM: Homo sapiens; for IC50 / viability at 0.312 µM / viability at 0.625 µM / viability at 1.25 µM / viability at 2.5 µM / viability at 5 µM / viability at 10 µM / Toxicity %: MDA-MB-231
How it was run: as §1

[9] = MTT, mean of three independent experiments ± SD, read-out: IC50 Value HT-29
[10] = MTT, mean of three independent experiments ± SD, read-out: IC50 Value U-937
[11] = MTT, mean of three independent experiments ± SD, read-out: IC50 Value MDA-MB-231
[12] = SI = IC50 normal cells (Vero)/IC50 cancer cells

Sequence of human recombinant PLK1 (P53350 whole entry): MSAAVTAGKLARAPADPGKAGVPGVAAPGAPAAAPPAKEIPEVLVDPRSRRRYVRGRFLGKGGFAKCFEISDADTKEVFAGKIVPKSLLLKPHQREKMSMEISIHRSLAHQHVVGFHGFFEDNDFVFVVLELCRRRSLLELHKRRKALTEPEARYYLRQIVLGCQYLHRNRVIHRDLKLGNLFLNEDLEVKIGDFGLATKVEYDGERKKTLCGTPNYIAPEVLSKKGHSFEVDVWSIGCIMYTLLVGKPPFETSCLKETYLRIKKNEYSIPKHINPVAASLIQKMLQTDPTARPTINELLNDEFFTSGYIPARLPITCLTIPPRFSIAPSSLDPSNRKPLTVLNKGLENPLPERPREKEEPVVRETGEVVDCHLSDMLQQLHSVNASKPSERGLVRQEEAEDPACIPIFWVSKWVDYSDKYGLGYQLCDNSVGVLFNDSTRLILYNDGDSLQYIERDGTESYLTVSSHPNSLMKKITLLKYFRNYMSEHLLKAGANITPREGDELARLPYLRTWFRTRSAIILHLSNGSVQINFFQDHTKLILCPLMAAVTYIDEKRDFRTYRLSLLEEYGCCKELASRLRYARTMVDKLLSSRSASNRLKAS

%inh ([6]; conc 0.01 (unit not given)): 34%
%inh ([6]; conc 0.1 (unit not given)): 46%
%inh ([6]; conc 1 (unit not given)): 70%
%inh ([6]; conc 10 (unit not given)): 88%
%inh ([6]; conc 100 (unit not given)): 95%
IC50 [6]: 94 ± 4 nM
%inh ([7]; conc 0.01 (unit not given)): 41%
%inh ([7]; conc 0.1 (unit not given)): 58%
%inh ([7]; conc 1 (unit not given)): 75%
%inh ([7]; conc 10 (unit not given)): 91%
%inh ([7]; conc 100 (unit not given)): 95%
IC50 [7]: 29 ± 1 nM
Structure (SMILES): Nc1c(/N=C(/CBr)c2ccccc2)c(=O)[nH]c(=O)n1Cc1ccccc1 [Compound 4, (E)-6-Amino-1-benzyl-5-((2-bromo-1-phenylethylidene)amino)pyrimidine-2,4(1H,3H)-dione]
Toxicity % ([1]; HT29, MTT, 0.312 uM): 0.1292%
Toxicity % ([1]; HT29, MTT, 0.625 uM): 48.06%
Toxicity % ([1]; HT29, MTT, 1.25 uM): 92.12%
Toxicity % ([1]; HT29, MTT, 2.5 uM): 92.46%
Toxicity % ([1]; HT29, MTT, 5 uM): 92.76%
Toxicity % ([1]; HT29, MTT, 10 uM): 93.84%
viability at 0.312 µM ([1]; HT29, MTT, 0.312 uM): 99.9%
viability at 0.625 µM ([1]; HT29, MTT, 0.625 uM): 51.9%
viability at 1.25 µM ([1]; HT29, MTT, 1.25 uM): 7.88%
viability at 2.5 µM ([1]; HT29, MTT, 2.5 uM): 7.54%
viability at 5 µM ([1]; HT29, MTT, 5 uM): 7.24%
viability at 10 µM ([1]; HT29, MTT, 10 uM): 6.16%
IC50 [1, 9]: 760 nM
IC50 [2, 10]: 950 nM
Toxicity % ([2]; U937, MTT, 0.312 uM): 2.669%
Toxicity % ([2]; U937, MTT, 0.625 uM): 16.99%
Toxicity % ([2]; U937, MTT, 1.25 uM): 75.22%
Toxicity % ([2]; U937, MTT, 2.5 uM): 91.99%
Toxicity % ([2]; U937, MTT, 5 uM): 92.54%
Toxicity % ([2]; U937, MTT, 10 uM): 92.1%
viability at 0.312 µM [3]: 97.3%
viability at 0.625 µM [3]: 83%
viability at 1.25 µM [3]: 24.8%
viability at 2.5 µM [3]: 8.01%
viability at 5 µM [3]: 7.46%
viability at 10 µM [3]: 7.9%
IC50 [4]: 1730 ± 30 nM
viability at 0.312 µM [4]: 100%
viability at 0.625 µM [4]: 92.9%
viability at 1.25 µM [4]: 63.6%
viability at 2.5 µM [4]: 23.6%
viability at 5 µM [4]: 6.63%
viability at 10 µM [4]: 2.28%
Toxicity % ([5]; 0.312 uM): 0%
Toxicity % ([5]; 0.625 uM): 7.106%
Toxicity % ([5]; 1.25 uM): 36.41%
Toxicity % ([5]; 2.5 uM): 76.37%
Toxicity % ([5]; 5 uM): 93.37%
Toxicity % ([5]; 10 uM): 97.72%
IC50 [8, 11]: 780 ± 10 nM
viability at 0.312 µM ([8]; MTT, 0.312 uM): 99.7%
viability at 0.625 µM ([8]; MTT, 0.625 uM): 57.8%
viability at 1.25 µM ([8]; MTT, 1.25 uM): 7.14%
viability at 2.5 µM ([8]; MTT, 2.5 uM): 8.02%
viability at 5 µM ([8]; MTT, 5 uM): 5.1%
viability at 10 µM ([8]; MTT, 10 uM): 4.7%
Toxicity % ([8]; MTT, 0.312 uM): 0.3103%
Toxicity % ([8]; MTT, 0.625 uM): 42.24%
Toxicity % ([8]; MTT, 1.25 uM): 92.86%
Toxicity % ([8]; MTT, 2.5 uM): 91.98%
Toxicity % ([8]; MTT, 5 uM): 94.9%
Toxicity % ([8]; MTT, 10 uM): 95.3%

%inh ([6]; conc 0.01 (unit not given)): 25%
%inh ([6]; conc 0.1 (unit not given)): 42%
%inh ([6]; conc 1 (unit not given)): 65%
%inh ([6]; conc 10 (unit not given)): 87%
%inh ([6]; conc 100 (unit not given)): 94%
IC50 [6]: 218 ± 10 nM
%inh ([7]; conc 0.01 (unit not given)): 34%
%inh ([7]; conc 0.1 (unit not given)): 49%
%inh ([7]; conc 1 (unit not given)): 73%
%inh ([7]; conc 10 (unit not given)): 88%
%inh ([7]; conc 100 (unit not given)): 95%
IC50 [7]: 141 ± 6 nM
Structure (SMILES): CCn1c(N)c(/N=C(/CBr)c2ccc(OC)cc2)c(=O)[nH]c1=O [Compound 6a, (E)-6-Amino-5-((2-bromo-1-(4-methoxyphenyl)ethylidene)amino)-1-ethylpyrimidine-2,4(1H,3H)-dione]
Toxicity % ([1]; HT29, MTT, 0.312 uM): 0.3876%
Toxicity % ([1]; HT29, MTT, 0.625 uM): 0.04307%
Toxicity % ([1]; HT29, MTT, 1.25 uM): 26.57%
Toxicity % ([1]; HT29, MTT, 2.5 uM): 89.88%
Toxicity % ([1]; HT29, MTT, 5 uM): 95.95%
Toxicity % ([1]; HT29, MTT, 10 uM): 95.74%
viability at 0.312 µM ([1]; HT29, MTT, 0.312 uM): 99.6%
viability at 0.625 µM ([1]; HT29, MTT, 0.625 uM): 100%
viability at 1.25 µM ([1]; HT29, MTT, 1.25 uM): 73.4%
viability at 2.5 µM ([1]; HT29, MTT, 2.5 uM): 10.1%
viability at 5 µM ([1]; HT29, MTT, 5 uM): 4.05%
viability at 10 µM ([1]; HT29, MTT, 10 uM): 4.26%
IC50 [1, 9]: 750 ± 10 nM
IC50 ([1]; supplement viability lab report, HT29, read-out: IC50 ± SD): 1690 nM
Selectivity Indices (SI) HT-29 [1, 12]: 2.75
IC50 [2, 10]: 970 ± 10 nM
IC50 ([2]; supplement viability lab report, U937, read-out: IC50 ± SD): 1120 nM
Selectivity Indices (SI) U-937 [2, 12]: 2.12
Toxicity % ([2]; U937, MTT, 0.312 uM): 0.8715%
Toxicity % ([2]; U937, MTT, 0.625 uM): 3.867%
Toxicity % ([2]; U937, MTT, 1.25 uM): 59.69%
Toxicity % ([2]; U937, MTT, 2.5 uM): 85.46%
Toxicity % ([2]; U937, MTT, 5 uM): 86.76%
Toxicity % ([2]; U937, MTT, 10 uM): 90.09%
viability at 0.312 µM [3]: 99.1%
viability at 0.625 µM [3]: 96.1%
viability at 1.25 µM [3]: 40.3%
viability at 2.5 µM [3]: 14.5%
viability at 5 µM [3]: 13.2%
viability at 10 µM [3]: 9.91%
IC50 [4]: 2060 ± 30 nM
viability at 0.312 µM [4]: 99.8%
viability at 0.625 µM [4]: 99.2%
viability at 1.25 µM [4]: 83.6%
viability at 2.5 µM [4]: 26.8%
viability at 5 µM [4]: 11.6%
viability at 10 µM [4]: 4.59%
IC50 ([5]; Chlorocebus sabaeus, supplement viability lab report): 1950 nM
Toxicity % ([5]; 0.312 uM): 0.1996%
Toxicity % ([5]; 0.625 uM): 0.7585%
Toxicity % ([5]; 1.25 uM): 16.37%
Toxicity % ([5]; 2.5 uM): 73.21%
Toxicity % ([5]; 5 uM): 88.38%
Toxicity % ([5]; 10 uM): 95.41%
IC50 [8, 11]: 630 ± 10 nM
viability at 0.312 µM ([8]; MTT, 0.312 uM): 100%
viability at 0.625 µM ([8]; MTT, 0.625 uM): 98.9%
viability at 1.25 µM ([8]; MTT, 1.25 uM): 27.1%
viability at 2.5 µM ([8]; MTT, 2.5 uM): 5.98%
viability at 5 µM ([8]; MTT, 5 uM): 3.37%
viability at 10 µM ([8]; MTT, 10 uM): 4.03%
IC50 ([8]; supplement viability lab report, read-out: IC50 ± SD): 1000 nM
Toxicity % ([8]; MTT, 0.312 uM): 0.04433%
Toxicity % ([8]; MTT, 0.625 uM): 1.064%
Toxicity % ([8]; MTT, 1.25 uM): 72.92%
Toxicity % ([8]; MTT, 2.5 uM): 94.02%
Toxicity % ([8]; MTT, 5 uM): 96.63%
Toxicity % ([8]; MTT, 10 uM): 95.97%
Selectivity Indices (SI) MDA-MB-231 ([8]; SI = IC50 normal cells (Vero)/IC50 cancer cells, ≥5 highly, >2 moderately, <2 non-selective): 3.27
